{
  "source": "patent US20220280603A1",
  "about": "“TARGETING OF THE CYTOSKELETON AS A THERAPEUTIC APPROACH FOR NEURODEGENERATIVE DISEASE” (University of Massachusetts, priority 2019, published 2022)",
  "key": {"[1]": {"tested_on": "Neurofilament L mRNA in MNs expressing C71G PFN1", "test": "Fluorescence in situ hybridization of Neurofilament L mRNA", "type": "cell-based, mouse", "settings": "IMM01 vs DMSO", "experimental": "Primary motor neurons (MNs) were isolated from E12.5 mouse embryonic spinal cords dissociated in 0.1% trypsin (Worthington) at 37° C. for 12 minutes. MNs were purified using a 6% Optiprep (Sigma-Aldrich) density gradient and plated on glass coverslips coated with 0.5 g/L poly-ornithine (Sigma-Aldrich) and laminin (Thermo Fisher). Cells were grown at 37° C. and 5% CO2 in Neurobasal medium (Thermo Fisher) supplemented with 0.25% Glutamax, 2% B27, 2% horse serum, and 10 ng/ml BDNF, GDNF, and CNTF. MNs at 2 days in vitro (DIV) were transfected using 1.75 μl NeuroMag reagent (OZ Biosciences)+0.5 μg DNA. Complete growth medium was replaced with serum free neurobasal medium 1 hour prior and after transfection. The paramagnetic nanobeads used for transfection can linger inside the cell and in the extracellular space for several days and can be detected as DAPI positive dots. The V5-PFN1 plasmids were described in Wu, C. […]\nImmunofluorescence images were deconvolved using an adaptative blind deconvolution algorithm (Autoquant X3, Media Cybernetics) before analysis. To measure fluorescence intensities, the signals were thresholded and the resulting integrated densities were normalized on the area of the selected region (e.g. cell body, nucleus). […] For NCT dynamics, the fluorescence intensity of S-mCherry was measured in the nucleus using ImageJ and normalized to the background for every time point. […]"}, "[2]": {"tested_on": "fibroblasts from ALS patients carrying C9ORF72 repeat expansions", "test": "FISH for C9ORF72 RNA nuclear foci in patient fibroblasts", "type": "cell-based, human", "settings": "IMM01 treatment", "experimental": "Fibroblasts were obtained from skin biopsies of 3 ALS patients carrying mutations in C9ORF72 gene and of 3 healthy donors, sex- and age-matched with ALS cases, after informed consent and approval by the IRCCS Istituto Auxologico Italiano ethics committee. C9ORF72 mutation was validated in primary fibroblasts by repeat-primed PCR and repeat expansion size determined by Southern blot analysis (range 600-1500 units). Fibroblasts were grown in RPMI 1640 medium (EuroClone) containing 2 g/L glucose and supplemented with 10% FBS (Sigma Aldrich), 2 mM L-glutamine, 2.5 μg/ml amphotericin B (Sigma Aldrich), 100 units/ml penicillin and 100 μg/ml streptomycin (Gibco). 10,000 cell/well were seeded on glass coverslip in 24-well plates and after 24 hours, 50% of medium was replaced with fresh medium and IMM01 (Sigma Aldrich) at the final concentration of 0.1 μM. After a 24-hour treatment, cells were fixed with 4% paraformaldehyde for 20 minutes, permeabilized with 0.3% Triton X-100/1×PBS for 5 minutes and processed for immunofluorescence as described below.\nMotor neurons were fixed in 4% RNase-free paraformaldehyde for 15 minutes and stored in 70% ethanol at 4° C. overnight. […]"}, "[3]": {"tested_on": "primary motor neurons (MNs)", "test": "Cell death / apoptosis in treated motor neurons", "type": "cell-based, mouse", "experimental": "(§1) Primary motor neurons (MNs) were isolated from E12.5 mouse embryonic spinal cords dissociated in 0.1% trypsin (Worthington) at 37° C. for 12 minutes. MNs were purified using a 6% Optiprep (Sigma-Aldrich) density gradient and plated on glass coverslips coated with 0.5 g/L poly-ornithine (Sigma-Aldrich) and laminin (Thermo Fisher). Cells were grown at 37° C. and 5% CO2 in Neurobasal medium (Thermo Fisher) supplemented with 0.25% Glutamax, 2% B27, 2% horse serum, and 10 ng/ml BDNF, GDNF, and CNTF. MNs at 2 days in vitro (DIV) were transfected using 1.75 μl NeuroMag reagent (OZ Biosciences)+0.5 μg DNA. Complete growth medium was replaced with serum free neurobasal medium 1 hour prior and after transfection. The paramagnetic nanobeads used for transfection can linger inside the cell and in the extracellular space for several days and can be detected as DAPI positive dots. The V5-PFN1 plasmids were described in Wu, C. H. et al. Mutations in the profilin 1 gene cause familial amyotrophic lateral sclerosis. Nature 488, 499-503 (2012). The (G4C2)80 (SEQ ID NO:12). construct was described in Almeida, S. et al. Modeling key pathological features of frontotemporal dementia with C9ORF72 repeat expansion in iPSC-derived human neurons. Acta Neuropathol 126, 385-399 (2013). […]"}, "[4]": {"tested_on": "fibroblasts from ALS patients carrying C9ORF72 repeat expansions", "test": "Immunofluorescence of RanGAP1 and FG-Nups in C9ORF72-ALS patient fibroblasts", "type": "cell-based, human", "settings": "0.1 μM IMM01 for 24 hours, vs DMSO", "experimental": "Fibroblasts were obtained from skin biopsies of 3 ALS patients carrying mutations in C9ORF72 gene and of 3 healthy donors, sex- and age-matched with ALS cases, after informed consent and approval by the IRCCS Istituto Auxologico Italiano ethics committee. C9ORF72 mutation was validated in primary fibroblasts by repeat-primed PCR and repeat expansion size determined by Southern blot analysis (range 600-1500 units). Fibroblasts were grown in RPMI 1640 medium (EuroClone) containing 2 g/L glucose and supplemented with 10% FBS (Sigma Aldrich), 2 mM L-glutamine, 2.5 μg/ml amphotericin B (Sigma Aldrich), 100 units/ml penicillin and 100 μg/ml streptomycin (Gibco). […]\nImmunofluorescence images were deconvolved using an adaptative blind deconvolution algorithm (Autoquant X3, Media Cybernetics) before analysis. To measure fluorescence intensities, the signals were thresholded and the resulting integrated densities were normalized on the area of the selected region (e.g. cell body, nucleus). […] For NCT dynamics, the fluorescence intensity of S-mCherry was measured in the nucleus using ImageJ and normalized to the background for every time point. […] For the analysis of axonal fluorescence intensities, a 100 μm long region of the proximal axon was measured in all conditions. Axon lengths were measured using the ImageJ plugin NeuronJ 60. […]"}, "[5]": {"tested_on": "primary motor neurons (MNs) expressing C71G PFN1", "test": "Immunofluorescence of nuclear pore/NCT factors and TDP-43 in motor neurons expressing mutant PFN1", "type": "cell-based, mouse", "settings": "vs DMSO", "experimental": "as §1, with “(2013). For the GFP-PFN1 constructs, WT or mutant PFN1 was PCR amplified from the V5 constructs and cloned in the pEGFP-C1 backbone using BamHI sites. The FH1-FH2 domains of murine formin mDia1 (amino acid residues 553-1192) were PCR amplified using specific primers and cloned into the pEGFP-C1 plasmid using XhoI and BamHI restriction sites. GFP or GFP-mDia1 were co-transfected in a 1:2 ratio with PFN1 or C9ORF72 plasmids.” for “(2013).”\n(§2) Immunofluorescence images were deconvolved using an adaptative blind deconvolution algorithm (Autoquant X3, Media Cybernetics) before analysis. To measure fluorescence intensities, the signals were thresholded and the resulting integrated densities were normalized on the area of the selected region (e.g. cell body, nucleus). […]"}, "[6]": {"tested_on": "primary motor neurons (MNs) expressing C71G PFN1", "test": "Axon length and outgrowth analysis", "type": "cell-based, mouse", "experimental": "Motor neurons were co-transfected as outlined above with green fluorescent protein (GFP) and V5-tagged PFN1 constructs in a 1:2 ratio. KPT-276 (50 nM) or equal volumes of DMSO were added to the culture medium 1 day after transfection and maintained throughout the experiment for a total of 3 days. Cells were fixed and stained to detect V5-PFN1 expression 4 days after transfection. Cells were imaged as individual focal planes using a 10× lens. GFP was used to identify transfected cells and highlight the whole cell structure. […]\nImmunofluorescence images were deconvolved using an adaptative blind deconvolution algorithm (Autoquant X3, Media Cybernetics) before analysis. To measure fluorescence intensities, the signals were thresholded and the resulting integrated densities were normalized on the area of the selected region (e.g. cell body, nucleus). […] For NCT dynamics, the fluorescence intensity of S-mCherry was measured in the nucleus using ImageJ and normalized to the background for every time point. […] For the analysis of axonal fluorescence intensities, a 100 μm long region of the proximal axon was measured in all conditions. Axon lengths were measured using the ImageJ plugin NeuronJ 60. […] The rate of axon outgrowth was measured using the ImageJ plugin MTrackJ by tracking the movement of the growth cone in all fields. […]"}, "[7]": {"tested_on": "primary motor neurons (MNs)", "test": "Actin depolymerization assay: immunofluorescence of NCT factors in Latrunculin A treated motor neurons", "type": "cell-based, mouse", "settings": "0.1 mg/L Latrunculin A for 3 days", "experimental": "Primary motor neurons (MNs) were isolated from E12.5 mouse embryonic spinal cords dissociated in 0.1% trypsin (Worthington) at 37° C. for 12 minutes. MNs were purified using a 6% Optiprep (Sigma-Aldrich) density gradient and plated on glass coverslips coated with 0.5 g/L poly-ornithine (Sigma-Aldrich) and laminin (Thermo Fisher). Cells were grown at 37° C. and 5% CO2 in Neurobasal medium (Thermo Fisher) supplemented with 0.25% Glutamax, 2% B27, 2% horse serum, and 10 ng/ml BDNF, GDNF, and CNTF. MNs at 2 days in vitro (DIV) were transfected using 1.75 μl NeuroMag reagent (OZ Biosciences)+0.5 μg DNA. Complete growth medium was replaced with serum free neurobasal medium 1 hour prior and after transfection. The paramagnetic nanobeads used for transfection can linger inside the cell and in the extracellular space for several days and can be detected as DAPI positive dots. The V5-PFN1 plasmids were described in Wu, C. H. et al. Mutations in the profilin 1 gene cause familial amyotrophic lateral sclerosis. Nature 488, 499-503 (2012). The (G4C2)80 (SEQ ID NO:12). construct was described in Almeida, S. et al. Modeling key pathological features of frontotemporal dementia with C9ORF72 repeat expansion in iPSC-derived human neurons. Acta Neuropathol 126, 385-399 (2013). For the GFP-PFN1 constructs, WT or mutant PFN1 was PCR amplified from the V5 constructs and cloned in the pEGFP-C1 backbone using BamHI sites. The FH1-FH2 domains of murine formin mDia1 (amino acid residues 553-1192) were PCR amplified using specific primers and cloned into the pEGFP-C1 plasmid using XhoI and BamHI restriction sites. GFP or GFP-mDia1 were co-transfected in a 1:2 ratio with PFN1 or C9ORF72 plasmids. Mock transfection controls were performed by subjecting the cells to all the steps of transfection without adding any plasmid DNA. For actin depolymerization assays, 2 DIV MNs were treated with 0.1 mg/L Latrunculin A (Cayman) for 3 days. For nuclear export inhibition, MNs were treated with 50 nM KPT-276 (Selleck) or equal volume of DMSO (Sigma Aldrich) 1 day after transfection. For formin induction, MNs were treated with 0.1 μM IMM01 (EMD Millipore) for 24 hr before fixation at 6 DIV.\nCells were fixed with 4% paraformaldehyde for 15 minutes. Fixed motor neurons were treated with hot 10 mM citrate buffer, pH 6 for 20 minutes before permeabilization with 0.2% Triton-X 100 for 5 minutes. […]\nas §2"}},
  "note": "“Also recorded” adds a separate entry of the source.",
  "data": [
    {"molecule": "CC(C)(C)NC(=S)N/N=C/c1ccc(O)cc1O", "note": "[IMM01]", "values": [
      {"measurement": "axonal localization of Nef1 mRNA", "setting": "[1]", "result": "rescue the defects in the axonal localization; also recorded: rescue of mislocalization"},
      {"measurement": "propensity of the cell to form C9ORF72-positive nuclear foci", "setting": "[2]", "result": "without changes to the propensity of the cell to form C9ORF72-positive nuclear foci"},
      {"measurement": "induction of apoptosis", "setting": "[3]; primary MNs, 0.1 μM IMM01 for 24 hours", "result": "No induction of apoptosis was detected"},
      {"measurement": "localization of FG-Nups", "setting": "[4]", "result": "rescued defects in the localization; also recorded: significantly rescued the defects"},
      {"measurement": "localization of RanGAP1", "setting": "[4]", "result": "rescued defects in the localization; also recorded: significantly rescued the defects"},
      {"measurement": "FG-Nups localization at the nuclear envelope", "setting": "[5]; 0.1 μM IMM01 for 24 hours", "result": "rescue of FG-Nups defective localization at the nuclear envelope; also recorded: rescue of mislocalization"},
      {"measurement": "Ran gradient (Ran localization)", "setting": "[5]; 0.1 μM IMM01 for 24 hours", "result": "rescue of mislocalization"}
    ]},
    {"molecule": "O=C(/C=C\\n1cnc(-c2cc(C(F)(F)F)cc(C(F)(F)F)c2)n1)N1CC(F)(F)C1", "note": "[KPT-276]", "values": [
      {"measurement": "axon length", "setting": "[6]; 50 nM KPT-276 for 3 days, vs DMSO", "result": "fully rescued the defect"},
      {"measurement": "rate of axon growth (outgrowth) by live cell imaging", "setting": "[6]; 50 nM KPT-276 ~18-24 hours, imaged over 1 hour", "result": "full rescue of the outgrowth defects"},
      {"measurement": "C:N ratio of TDP-43 (TDP-43 cytoplasmic mislocalization)", "setting": "[5]; 50 nM KPT-276 6 hours prior to fixation", "result": "fully rescue TDP-43 cytoplasmic mislocalization; also recorded: rescues C:N ratio of TDP-43"}
    ]},
    {"molecule": "C/C1=C/C(=O)O[C@@H]2C[C@@H](CC[C@H](C)/C=C\\C=C\\CC1)O[C@@](O)([C@@H]1CSC(=O)N1)C2", "note": "[Latrunculin A]", "values": [
      {"measurement": "localization of FG-Nups", "setting": "[7]", "result": "severe mislocalization"},
      {"measurement": "localization of Ran", "setting": "[7]", "result": "severe mislocalization; also recorded: disrupted"},
      {"measurement": "localization of RanGAP1", "setting": "[7]", "result": "severe mislocalization; also recorded: disrupted"},
      {"measurement": "nuclear morphology", "setting": "[7]", "result": "smaller nuclei with condensed DNA"},
      {"measurement": "cell death or apoptosis", "setting": "[3]; MNs, Latrunculin A treatment conditions (0.1 mg/L, 3 days), data not shown", "result": "No increased cell death or apoptosis was observed"}
    ]}
  ]
}
